The target of series [1] is T1, cyclin B/CDK1 enzyme (Homo sapiens, UniProt P06493).
T1 construct: purchased New England BioLabs; host or cells: Sf9 insect cells, recombinant baculovirus
The series can be described thus: CDK1 ELISA kinase assay (phospho-Rb ser 795 detection). Format: biochemical. Summed up: (§1)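 Wells were coated overnight with GST-Rb C-terminal fragment, then blocked. Compound (10 ug/ml final) and cyclin/CDK enzyme from baculovirus-infected Sf9 cells with 200 μM ATP reacted 1 h at 30° C. Ser795 phosphorylation was detected by ELISA at 450 nm.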
Background: In an ELISA, binding on a coated surface is turned into a signal by an enzyme label.

The target in series [2] is T2, cyclin E/CDK2 enzyme (Homo sapiens, UniProt P24941).
T2 construct: made in house; host or cells: Sf9 insect cells, recombinant baculovirus
The series can be described thus: CDK2 ELISA kinase assay (phospho-Rb ser 795 detection). The format is biochemical. A digest of the protocol: as §1

Series [3] deals with BT474. The series can be described thus: Cytotoxicity assay (SRB), BT474. The format is cell-based. To be noted: Homo sapiens, BT-474, 144 h, read-out: In Vitro Cellular Activity IC50 BT474. A digest of the protocol:
(§2)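 Cells were seeded overnight in RPMI 1640 with 5% FBS at 37 °C, 7% CO2 (12000/well BT474, 4000 HCT-116, 6000 LoVo, 6000 MCF-7), then exposed to compound dilutions for 3 days (6 days for BT474). Survival versus untreated controls was measured by TCA fixation and SRB staining at 540 nm.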

Series [4] addresses T3, cyclin D1/cdk 4 enzyme (Homo sapiens, UniProt P11802).
T3 construct: made in house; host or cells: Sf9 insect cells, recombinant baculovirus
The experiment in a line: CDK4 ELISA kinase assay (phospho-Rb ser 795 detection). The format is biochemical. Particulars: 200 μM ATP. Summed up: as §1

The subject of series [5] is MCF-7. The experiment in a line: Cytotoxicity assay (SRB), MCF-7. Format: cell-based. Particulars: Homo sapiens, MCF7, 72 h, read-out: In Vitro Cellular Activity IC50 MCF-7. Summed up: as §2
For series [6], the system named is LoVo. The series can be described thus: Cytotoxicity assay (SRB), LoVo. The format is cell-based. Particulars: Homo sapiens, LoVo, 72 h, read-out: In Vitro Cellular Activity IC50 LOVO. Summed up: as §2
Series [7] concerns HCT-116. The experiment in a line: Cytotoxicity assay (SRB), HCT-116. The format is cell-based. Particulars: Homo sapiens, HCT-116, 72 h, read-out: In Vitro Cellular Activity IC50 HCT116. Summed up: as §2
[8] abbreviates: In Vitro Enzyme Assays, read-out: CDK1 IC50.
The mark [9] stands for this setting: In Vitro Enzyme Assays, read-out: CDK2 IC50.
Setting [10] is: In Vitro Enzyme Assays, read-out: CDK4 IC50.
[11] abbreviates: In Vitro Enzyme Assay, cyclin E/CDK2, read-out: CDK2 IC50.

Read-outs that look alike come from different tables or passages of the source.

T1 sequence (P06493 whole entry): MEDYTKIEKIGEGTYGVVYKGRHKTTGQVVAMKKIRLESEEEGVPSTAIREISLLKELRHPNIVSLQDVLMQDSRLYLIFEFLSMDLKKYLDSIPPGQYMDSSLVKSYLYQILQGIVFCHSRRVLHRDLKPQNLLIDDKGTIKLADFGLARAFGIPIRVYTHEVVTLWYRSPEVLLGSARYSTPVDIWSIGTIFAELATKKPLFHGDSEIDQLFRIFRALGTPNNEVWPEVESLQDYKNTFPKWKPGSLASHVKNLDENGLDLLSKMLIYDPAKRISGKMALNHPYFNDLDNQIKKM
T1 sequence (P14635 whole entry partner): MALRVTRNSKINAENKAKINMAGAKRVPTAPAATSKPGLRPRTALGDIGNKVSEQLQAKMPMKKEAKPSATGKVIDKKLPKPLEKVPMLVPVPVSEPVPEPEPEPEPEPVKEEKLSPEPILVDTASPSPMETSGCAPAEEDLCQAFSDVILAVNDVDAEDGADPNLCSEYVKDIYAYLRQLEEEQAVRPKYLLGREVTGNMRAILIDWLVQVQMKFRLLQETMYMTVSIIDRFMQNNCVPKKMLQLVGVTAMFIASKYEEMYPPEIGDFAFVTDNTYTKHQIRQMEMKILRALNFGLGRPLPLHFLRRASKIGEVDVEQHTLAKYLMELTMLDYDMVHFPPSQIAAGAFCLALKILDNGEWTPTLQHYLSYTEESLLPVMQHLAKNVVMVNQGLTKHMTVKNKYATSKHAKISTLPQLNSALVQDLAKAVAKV
T3 sequence (P11802 whole entry, species assumed): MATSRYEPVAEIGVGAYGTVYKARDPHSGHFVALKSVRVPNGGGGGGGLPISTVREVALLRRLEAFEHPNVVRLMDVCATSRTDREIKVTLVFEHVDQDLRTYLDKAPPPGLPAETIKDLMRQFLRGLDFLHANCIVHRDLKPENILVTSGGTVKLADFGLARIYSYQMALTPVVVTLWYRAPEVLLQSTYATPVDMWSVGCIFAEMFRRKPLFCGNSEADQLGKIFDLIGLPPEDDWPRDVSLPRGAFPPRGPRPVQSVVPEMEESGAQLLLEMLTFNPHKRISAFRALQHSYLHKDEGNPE
T3 sequence (P24385 whole entry partner, species assumed): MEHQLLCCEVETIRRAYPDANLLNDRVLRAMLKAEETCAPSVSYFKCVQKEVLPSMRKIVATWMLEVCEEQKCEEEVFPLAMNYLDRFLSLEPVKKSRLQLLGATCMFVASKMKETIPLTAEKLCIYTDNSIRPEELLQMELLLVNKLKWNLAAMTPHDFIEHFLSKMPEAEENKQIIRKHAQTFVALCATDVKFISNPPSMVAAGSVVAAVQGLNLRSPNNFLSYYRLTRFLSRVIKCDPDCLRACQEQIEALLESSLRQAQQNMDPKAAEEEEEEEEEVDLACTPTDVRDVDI

Turning to `CC1CN(C)[C@H](C)CN1c1ccc(N/C=C2\C(=O)NC(=O)c3ccc(Br)cc32)cc1` (stereo in doubt) [Example 238, (4Z)-6-Bromo-4-[({4-[(2S,5R)-2,4,5-trimethylpiperazin-1-yl]phenyl}amino)methylene]-isoquinoline-1,3(2H,4H)-dione], the melting point (commonly the temperature of the solid-liquid transition) lay within 184 to 185 °C. In addition, in series [1] (setting [8]), the IC50 (in general, the point on the concentration scale where inhibition reaches its midpoint) is over 50 µM. For the same compound, the IC50 in series [2] (setting [9]) is over 50 µM. The IC50 in series [3] (BT474 cells, SRB, 6 days) came to 7.4 µM. Also, in series [4] (setting [10]), the IC50 was determined as 4.8 µM. In series [5] (MCF-7 cells, SRB, three days), the IC50 was determined as 1 µM. Moreover, in series [6] (LoVo cells, SRB, three days), the IC50 turned out to be 4.3 µM. The IC50 in series [7] (HCT116 cells, SRB, three days) is 6.7 µM.
`COc1cc2c(cc1OC)/C(=C/Nc1ccc(N3CCN(C)CC3)cc1)C(=O)NC2=O` [Example 37, (4Z)-6,7-Dimethoxy-4-({[4-(-methylpiperazin-1-yl)phenyl}amino)methylene] isoquinolin-1,3(2H,4H)-dione] yielded a melting point of 273 to 274 °C. The IC50 in series [1] (setting [8]) was over 50 µM. Besides, the IC50 in series [2] (setting [9]) was over 50 µM. The IC50 in series [4] (setting [10]) came out at 14.8 µM.
With `CC(=O)Nc1ccc2c(c1)/C(=C/Nc1ccc(CN3CCCCC3)cc1)C(=O)NC2=O` [Example 48], the melting point was over 320 °C. The IC50 in series [1] (setting [8]) is over 50 µM. In addition, the 50% inhibitory concentration (IC50) in series [2] (setting [9]) was 8.1 µM.
`Nc1cccc(CN/C=C2\C(=O)NC(=O)c3ccc(Br)cc32)c1` [Example 52, (4Z)-4-{[(3-Aminobenzyl)amino]methylene}-6-bromoisoquinoline-1,3(2H,4H)-dione] showed a melting point of 214 to 215 °C. Moreover, the IC50 in series [1] (setting [8]) is over 50 µM. Besides, the IC50 in series [2] (setting [9]) stood at 4.5 µM. The IC50 in series [3] (BT474 cells, SRB, 6 days) amounted to 41 µM. Moreover, the concentration for half-maximal inhibition (IC50) in series [4] (setting [10]) was 24.3 µM. For the same compound, the IC50 in series [5] (MCF-7 cells, SRB, three days) is over 50 µM. In series [6] (LoVo cells, SRB, three days), the IC50 was over 50 µM. The IC50 in series [7] (HCT116 cells, SRB, three days) was found to be 40 µM.
As to `O=C1NC(=O)c2ccc(Br)cc2/C1=C/Nc1ccc(O)c(C(=O)O)c1` [Example 58, 5-{[(Z)-(6-Bromo-1,3-dioxo-2,3-dihydroisoquinolin-4(1H)-ylidene)methyl]amino}-2-hydroxybenzoic acid], the melting point fell in the range of 336 to 337 °C. In series [1] (setting [8]), the IC50 came out at 31.8 µM. The IC50 in series [2] (setting [9]) came to 19.4 µM. Besides, the IC50 in series [4] (setting [10]) is 12.4 µM.
Consider `O=C1NC(=O)c2ccc(Br)cc2/C1=C/NCc1ccc(O)cc1` [Example 62], for which the melting point fell in the range of 296 to 297 °C. Further, the IC50 in series [1] (setting [8]) is over 50 µM. The IC50 in series [2] (setting [9]) was 4.5 µM. Moreover, the IC50 in series [4] (setting [10]) worked out at 31.1 µM.
On the same counts, the results for `CN1CCN(c2ccc(N/C=C3\C(=O)NC(=O)c4ccc(C(=O)N(C)C)cc43)cc2)CC1` [Example 65, (4Z)-N,N-Dimethyl-4-({[4-(4-methylpiperazin-1-yl)phenyl]amino}methylene)-1,3-dioxo-1,2,3,4-tetrahydroisoquinoline-6-carboxamide] are over 300 °C, over 50 µM, 47 µM and 41 µM.
Compound `CCN(CC)C(=O)Oc1cc(CN/C=C2\C(=O)NC(=O)c3ccc(I)cc32)ccc1OC` [Example 99, 5-({[(Z)-(6-Iodo-1,3-dioxo-2,3-dihydroisoquinolin-4(1H)-ylidene)methyl]amino}methyl)-2-methoxyphenyl diethylcarbamate] had a melting point of 128 to 130 °C. For the same compound, the IC50 in series [1] (CDK1 IC50, In Vitro Enzyme Assays) is over 50 µM. The compound also yielded a concentration for half-maximal inhibition (IC50) in series [2] (CDK2 IC50, In Vitro Enzyme Assays) of over 50 µM. The compound also registered an IC50 in series [4] (CDK4 IC50, In Vitro Enzyme Assays) of 1.4 µM.
In the case of `O=C1NC(=O)c2ccc(Br)cc2C1=CNc1ccc(-c2c[nH]cn2)cc1` [Example 164, 6-Bromo-4-{[4-(1H-imidazol-4-yl)-phenylamino]-methylene}-4H-isoquinolin-1,3-dione], the melting point was > 300 °C (dec.). Besides, the IC50 in series [1] (setting [8]) was over 50 µM. Also, in series [2] (setting [9]), the IC50 is 11 µM. The IC50 in series [4] (setting [10]) came to 43.4 µM.
On the same counts, the results for `CCCOc1ccc(CN/C=C2\C(=O)NC(=O)c3ccc(NC(=O)c4ccco4)cc32)cc1O` [Example 197] are 233 to 234 °C, over 50 µM, over 50 µM and 12.3 µM.
In the case of `Nc1ccc(CN/C=C2\C(=O)NC(=O)c3ccc(Br)cc32)cc1O` [Example 227, (4Z)-4-{[(4-Amino-3-hydroxybenzyl)amino]methylene}-6-bromoisoquinoline-1,3(2H,4H)-dione], the melting point lay in the range of 245 to 246 °C. Besides, in series [1] (setting [8]), the half-maximal inhibitory concentration (IC50) is over 50 µM. Also, in series [2] (setting [9]), the IC50 amounted to 6.7 µM. Further, the IC50 in series [4] (setting [10]) was 0.08 µM. Besides, the IC50 in series [5] (MCF-7 cells, SRB, three days) is over 50 µM. Besides, the IC50 in series [6] (LoVo cells, SRB, three days) turned out to be 37 µM. Also, in series [7] (HCT116 cells, SRB, three days), the IC50 came out at 44 µM.
Consider `CC(N)(C(=O)O)c1ccc(NC=C2C(=O)NC(=O)c3ccc(Br)cc32)cc1` (stereo not drawn) [Example 277, 2-Amino-2-{4-[(6-bromo-1,3-dioxo-2,3-dihydro-1H-isoquinolin-4-ylidenemethyl)-amino]-phenyl}-propionic acid], for which the melting point lay in the range of 250 to 253 °C. For the same compound, the IC50 in series [1] (setting [8]) is over 50 µM. Also, the IC50 in series [2] (setting [9]) turned out to be 39.7 µM. Besides, in series [4] (setting [10]), the IC50 was 35.5 µM.
On the same counts, the results for `O=C(O)CCCN/C=C1\C(=O)NC(=O)c2ccc(Br)cc21` [Example 314, (Z)-4-((6-Bromo-1,3-dioxo-2,3-dihydroisoquinolin-4(1H)-ylidene)methylamino)butanoic acid] are 260 to 262 °C (dec.), over 50 µM, 37.1 µM and 1.5 µM.
On the same counts, the results for `O=C(O)CCCN/C=C1\C(=O)NC(=O)c2ccc(-n3cccc3)cc21` [Example 315, (Z)-4-((1,3-Dioxo-6-(1H-pyrrol-1-yl)-2,3-dihydroisoquinolin-4(1H)-ylidene)methylamino)butanoic acid] are 230 to 240 °C (dec.), 43.4 µM, 31 µM and 0.19 µM.
Regarding `CN1CCN(c2ccc(N/C=C3\C(=O)NC(=O)c4ccc(-c5ccoc5)cc43)nc2)CC1` [Example 443, (4Z)-6-(3-Furyl)-4-({[5-(4-methylpiperazin-1-yl)pyridin-2-yl]amino}methylene)isoquinoline-1,3(2H,4H)-dione], the melting point was in the range of 262 to 263 °C. Further, the IC50 in series [1] (setting [8]) is over 50 µM. Also, the IC50 in series [2] (setting [9]) is over 50 µM. Further, the IC50 in series [3] (BT474 cells, 6 days, SRB) was 0.65 µM. The IC50 in series [4] (setting [10]) worked out at 0.13 µM. In series [6] (LoVo cells, 3 days, SRB), the IC50 was 0.85 µM.
On to `CC(C)(C)c1ccc2c(c1)/C(=C/NCc1cc(O)c(-c3ccoc3)cn1)C(=O)NC2=O` [Example 532, 6-tert-Butyl-4-{[(5-furan-3-yl-4-hydroxy-pyridin-2-ylmethyl)-amino]-methylene}-4H-isoquinoline-1,3-dione], for which the melting point was 215 to 230 °C (dec.). The IC50 in series [2] (setting [11]) stood at 1.9 µM. The IC50 in series [3] was 0.1 µM. In addition, in series [5], the IC50 is 1.4 µM. The IC50 in series [6] was 0.27 µM. Also, in series [7], the IC50 was 0.48 µM.
In the case of `O=C1NC(=O)c2ccc(C3CCCC3)cc2/C1=C/NCc1cc(O)c(-c2ccoc2)cn1` [Example 537], the melting point is 279 to 283 °C (dec.). Besides, in series [2] (setting [11]), the IC50 worked out at 1.3 µM. In addition, in series [3], the IC50 was determined as 0.13 µM. Further, the IC50 in series [5] worked out at 0.83 µM. In addition, the IC50 in series [6] amounted to 0.3 µM. Further, the IC50 in series [7] was determined as 0.81 µM.

For the origin of these results see patent US7713994B2 (Wyeth LLC, priority 2005, dated 2010).
